Paper PMC5604080, “Genetic and Biochemical Characterization of 2-Chloro-5-Nitrophenol Degradation in a Newly Isolated Bacterium, Cupriavidus sp. Strain CNP-8” (Frontiers in Microbiology, 2017)

Assays:
MnpC (H6-MnpC) = molecular target: T1, MnpC (H6-MnpC) (Cupriavidus sp. CNP-8, UniProt A0A291LMA7); test: spectrophotometric turnover, product with λmax […] nm; type: biochemical; conditions: structure analog used in place of unstable aminohydroquinone
T1 construct: full-length, pET-28a NdeI-XhoI, His6-tagged (H6-MnpC), E. coli Rosetta(DE3)pLysS, Ni-NTA purified, about 35 kDa, single-subunit dioxygenase
T1 sequence (A0A291LMA7 1-316): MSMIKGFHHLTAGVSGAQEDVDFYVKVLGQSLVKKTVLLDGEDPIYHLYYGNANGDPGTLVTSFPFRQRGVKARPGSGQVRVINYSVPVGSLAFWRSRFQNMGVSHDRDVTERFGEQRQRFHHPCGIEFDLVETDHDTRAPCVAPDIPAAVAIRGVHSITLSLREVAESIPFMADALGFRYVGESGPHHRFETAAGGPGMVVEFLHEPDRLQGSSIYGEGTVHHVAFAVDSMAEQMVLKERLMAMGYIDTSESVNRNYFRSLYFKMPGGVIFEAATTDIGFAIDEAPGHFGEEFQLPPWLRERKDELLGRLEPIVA

[1] = system: O=[N+]([O-])c1ccc(Cl)c(O)c1; test: purified protein; type: biochemical, Cupriavidus sp. CNP-8; conditions: 0.2 mM NADPH, 50 mM phosphate pH 7.5
O=[N+]([O-])c1cccc(O)c1 = test: purified protein; type: biochemical, Cupriavidus sp. CNP-8; conditions: 0.2 mM NADPH, 50 mM phosphate pH 7.5

Molecule | spectrophotometric turnover, product with λmax 320 nm (MnpC (H6-MnpC)) | Km [1] | Km (O=[N+]([O-])c1cccc(O)c1)
Oc1ccc(O)cc1 [hydroquinone] | H6-MnpC catalyzed rapid degradation of both CHQ and HQ |  | 
Oc1ccc(O)c(Cl)c1 [chlorohydroquinone] | H6-MnpC catalyzed rapid degradation of both CHQ and HQ |  | 
MnpA (H6-MnpA) (Cupriavidus sp. CNP-8) |  | 16.3 ± 2.87 µM | 3.4 ± 1.63 µM
